US20200296959A1, “DISINFECTION AND/OR STERILIZATION OF AGRICULTURAL CROPS” (priority 2019, published 2020)

System: Bacillus atrophaeus spore strips
Assay: Microbial decontamination barrel: sterilization of Steritest biological indicator spore strips
Protocol: Barrel Setup: All cycles were performed using a 48.8 gallon steel barrel with an airtight lid sealed with a rubber gasket.
Barrels were fitted with an SEC Sensor to monitor EO concentration throughout the cycle
The unit utilizes AN 7916 Anprolene gas release ampoules, which contain approximately 17.6 g of EO. The number of ampoules can be adjusted according to load weight.
Barrels were fitted with an observation chamber containing a chemical integrator, referred to a dosimeter. This allows sterilization progress to be monitored in real time with no disruption to the cycle.
An external recirculating abator cartridge was attached to the lid of the barrel to neutralize EO when the cycle is complete.
Humidichips, a Madgetech Datalogger, and a Steritest biological indicator including a Dosimeter and a Bacillus atrophaeus spore strip, were placed in the bottom of the barrel. An AN 7916 EO 17.6 g ampule was activated then placed in the bottom of the barrel.
Further, paper represents a reasonable proxy for agricultural materials such as hemp and marijuana, as all of these materials are all cellulosic materials.
In this example, the barrel was loaded with 150 lbs of paper. Humidichips, a Madgetech Datalogger, and a Steritest were placed in the middle of the load. The Barrel was filled to the top with cloth materials (which are also cellulosic materials). […]

In the case of `C1CO1` [ethylene oxide], the “ethylene oxide levels sufficient to kill biological surrogates (Bacillus atrophaeus) included with each load” value (microbial decontamination barrel, each load) is reported as “sufficient to kill 10^6 biological surrogates” and the “sterilization of Bacillus atrophaeus spore strips contained in the Steritest” value (seven 2-4 day cycles, 48.8 gallon barrel, 17.6 g EO ampoule, room temperature (around 20° C.), empty and paper loads) is reported as “successfully sterilized”.
